Source: patent publication US11673894B2, “Imidazopyrimidines and triazolopyrimidines as A2A / A2B inhibitors” (Incyte Corporation, priority 2018, dated 2023)

Legend:
[1] = target: human adenosine A2B receptor (Homo sapiens (Human), UniProt P29275); experiment: Adenosine A2B Receptor Cyclic AMP GS Assay; assay type: cell-based; conditions: HEK-293 cells expressing human A2B receptor; agonist NECA at 12 nM; cAMP accumulation (FRET); read-out: A2B_cAMP_EC50
Description: Stably transfected HEK-293 cells expressing the human adenosine A2B receptor (Perkin Elmer) were maintained in MEM culture medium with 10% FBS and 100 μg/ml Geneticin (Life Technologies). 18 to 24 hours prior to assay, geneticin was removed from culture. The cisbio cAMP-GS Dynamic kit utilizing the FRET (Fluorescence Resonance Energy Transfer) technology was used to measure cAMP accumulation in the cells. Compounds of the present disclosure at an appropriate concentration were mixed with 10000 cells/well in white 96 well half area plates (Perkin Elmer) for 30 min at RT gently shaking. Agonist, NECA (R&D Technologies) at 12 nM was added to each well for 60 min at RT gently shaking. Detection reagents, d2-labeled cAMP (acceptor) and anti-cAMP cryptate (donor) were added to each well for 60 min at RT gently shaking. Plates were read on Pherastar (BMG Labtech), fluorescence ratio 665/620 was calculated and EC50 determination was performed by fitting the curve of percent of control versus the log of the compound concentration using GraphPad Prism.

Adenosine A2A receptor = Adenosine A2A receptor (Homo sapiens (Human), UniProt P29274); experiment: A2A Tag-lite HTRF Assay; conditions: Tag-lite Adenosine A2A labeled cells; A2A Receptor Red antagonist fluorescent ligand 12.5 nM; one-site competitive binding model; read-out: A2A_Ki
Text: The final concentration of DMSO was 1%.

Chain of human adenosine A2B receptor (P29275 whole entry): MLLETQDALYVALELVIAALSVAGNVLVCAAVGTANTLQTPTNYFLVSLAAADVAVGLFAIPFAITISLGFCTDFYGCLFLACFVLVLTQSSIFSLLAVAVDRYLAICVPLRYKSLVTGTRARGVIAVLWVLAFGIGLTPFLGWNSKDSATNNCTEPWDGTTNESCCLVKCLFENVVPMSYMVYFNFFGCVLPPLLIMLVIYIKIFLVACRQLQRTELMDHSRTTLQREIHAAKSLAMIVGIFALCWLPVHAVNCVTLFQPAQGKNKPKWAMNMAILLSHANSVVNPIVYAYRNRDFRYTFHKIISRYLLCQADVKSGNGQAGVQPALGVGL
Chain of Adenosine A2A receptor (P29274 whole entry): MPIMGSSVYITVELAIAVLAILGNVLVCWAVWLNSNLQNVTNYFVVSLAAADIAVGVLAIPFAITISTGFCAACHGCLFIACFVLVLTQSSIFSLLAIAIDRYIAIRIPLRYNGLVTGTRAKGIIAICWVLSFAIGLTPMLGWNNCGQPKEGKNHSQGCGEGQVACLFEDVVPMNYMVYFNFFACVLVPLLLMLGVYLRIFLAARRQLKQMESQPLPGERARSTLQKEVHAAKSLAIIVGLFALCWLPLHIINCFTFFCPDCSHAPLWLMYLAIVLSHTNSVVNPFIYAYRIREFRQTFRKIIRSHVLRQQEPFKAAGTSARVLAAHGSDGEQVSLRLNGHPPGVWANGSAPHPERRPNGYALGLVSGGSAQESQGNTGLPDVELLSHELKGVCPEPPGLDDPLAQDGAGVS

N#Cc1cccc(-c2nc(N)n3nc(C(O)c4c(F)cccc4F)nc3c2-c2ccncn2)c1 (single isomer, unassigned) [Example 76, 3-(5-Amino-2-((2,6-difluorophenyl)(hydroxy)methyl)-8-(pyrimidin-4-yl)-[1,2,4]triazolo[1,5-c]pyrimidin-7-yl)benzonitrile]
EC50 [1]: < 10 nM

N#Cc1cccc(-c2nc(N)n3nc(C(O)c4c(F)cccc4F)nc3c2-c2ccncn2)c1 (single isomer, unassigned) [Example 77, 3-(5-Amino-2-((2,6-difluorophenyl)(hydroxy)methyl)-8-(pyrimidin-4-yl)-[1,2,4]triazolo[1,5-c]pyrimidin-7-yl)benzonitrile]
EC50 [1]: 10 to 100 nM

Cc1cc(-c2c(-c3cccc(C#N)c3)nc(N)n3ccnc23)cc(C)n1 [Example 1, 3-(5-Amino-8-(2,6-dimethylpyridin-4-yl)imidazo[1,2-c]pyrimidin-7-yl)benzonitrile]
Ki (Adenosine A2A receptor): < 10 nM
EC50 [1]: 100 to 1000 nM

Cc1cc(-c2c(-c3cnc4c(c3)CCN4)nc(N)n3ccnc23)cc(C)n1 [Example 2, 7-(2,3-Dihydro-1H-pyrrolo[2,3-b]pyridin-5-yl)-8-(2,6-dimethylpyridin-4-yl)imidazo[1,2-c]pyrimidin-5-amine]
Ki (Adenosine A2A receptor): 100 to 1000 nM

Cc1cc(-c2c(-c3ccccc3)nc(N)n3c(CN4CCOCC4)cnc23)cc(C)n1 [Example 3, 8-(2,6-Dimethylpyridin-4-yl)-3-(morpholinomethyl)-7-phenylimidazo[1,2-c]pyrimidin-5-amine]
Ki (Adenosine A2A receptor): 10 to 100 nM

COc1cccc(-c2nc(N)n3ccnc3c2-c2ccncc2)c1 [Example 4, 7-(3-Methoxyphenyl)-8-(pyridin-4-yl)imidazo[1,2-c]pyrimidin-5-amine]
Ki (Adenosine A2A receptor): < 10 nM
EC50 [1]: < 10 nM

Nc1nc(-c2ccncc2)c(-c2ccncc2)c2nccn12 [Example 5, 7,8-Di(pyridin-4-yl)imidazo[1,2-c]pyrimidin-5-amine]
Ki (Adenosine A2A receptor): 10 to 100 nM
EC50 [1]: 10 to 100 nM

Cc1occc1-c1nc(N)n2ccnc2c1-c1ccncc1 [Example 6, 7-(2-Methylfuran-3-yl)-8-(pyridin-4-yl)imidazo[1,2-c]pyrimidin-5-amine]
Ki (Adenosine A2A receptor): 10 to 100 nM

Nc1nc(-c2ccccc2F)c(-c2ccncc2)c2nccn12 [Example 7, 7-(2-Fluorophenyl)-8-(pyridin-4-yl)imidazo[1,2-c]pyrimidin-5-amine]
Ki (Adenosine A2A receptor): 10 to 100 nM
EC50 [1]: 10 to 100 nM

Nc1nc(-c2cc3ccccc3o2)c(-c2ccncc2)c2nccn12 [Example 8, 7-(Benzofuran-2-yl)-8-(pyridin-4-yl)imidazo[1,2-c]pyrimidin-5-amine]
Ki (Adenosine A2A receptor): 100 to 1000 nM

Cc1cc(-c2c(-c3cnn(C)c3)nc(N)n3ccnc23)ccn1 [Example 9, 7-(1-Methyl-1H-pyrazol-4-yl)-8-(2-methylpyridin-4-yl)imidazo[1,2-c]pyrimidin-5-amine]
Ki (Adenosine A2A receptor): 10 to 100 nM

Cc1cc(-c2c(-c3ccccc3)nc(N)n3cc(-c4ccccc4)nc23)ccn1 [Example 10, 8-(2-Methylpyridin-4-yl)-2,7-diphenylimidazo[1,2-c]pyrimidin-5-amine]
Ki (Adenosine A2A receptor): < 10 nM
EC50 [1]: 100 to 1000 nM

CCOC(=O)c1cn2c(N)nc(-c3ccccc3)c(-c3ccnc(C)c3)c2n1 [Example 11, Ethyl 5-amino-8-(2-methylpyridin-4-yl)-7-phenylimidazo[1,2-c]pyrimidine-2-carboxylate]
Ki (Adenosine A2A receptor): 10 to 100 nM

COC(=O)c1cc(-c2cn3c(N)nc(-c4ccccc4)c(-c4ccncc4)c3n2)on1 [Example 12, Methyl 5-(5-amino-7-phenyl-8-(pyridin-4-yl)imidazo[1,2-c]pyrimidin-2-yl)isoxazole-3-carboxylate]
Ki (Adenosine A2A receptor): 10 to 100 nM

CCOc1ccc(-c2cnc3c(-c4ccnc(C)c4)c(-c4ccccc4)nc(N)n23)cc1 [Example 13, 3-(4-Ethoxyphenyl)-8-(2-methylpyridin-4-yl)-7-phenylimidazo[1,2-c]pyrimidin-5-amine]
Ki (Adenosine A2A receptor): 10 to 100 nM

Cc1cc(-c2c(-c3ccccc3)nc(N)n3cc(C(N)=O)nc23)ccn1 [Example 14, 5-Amino-8-(2-methylpyridin-4-yl)-7-phenylimidazo[1,2-c]pyrimidine-2-carboxamide]
Ki (Adenosine A2A receptor): < 10 nM
EC50 [1]: 10 to 100 nM

CCNC(=O)c1cn2c(N)nc(-c3ccccc3)c(C3=CCN(C(N)=O)CC3)c2n1 [Example 15, 5-Amino-8-(1-carbamoyl-1,2,3,6-tetrahydropyridin-4-yl)-N-ethyl-7-phenylimidazo[1,2-c]pyrimidine-2-carboxamide]
Ki (Adenosine A2A receptor): < 10 nM
EC50 [1]: 100 to 1000 nM

CCNC(=O)c1cn2c(N)nc(-c3ccccc3)c(C3CCN(C(N)=O)CC3)c2n1 [Example 16, 5-Amino-8-(1-carbamoylpiperidin-4-yl)-N-ethyl-7-phenylimidazo[1,2-c]pyrimidine-2-carboxamide]
Ki (Adenosine A2A receptor): < 10 nM
EC50 [1]: 100 to 1000 nM

CCNC(=O)c1nc2c(-c3ccnc(OC)c3)c(-c3cccc(C#N)c3)nc(N)n2c1OCCO [Example 17, 5-Amino-7-(3-cyanophenyl)-JV-ethyl-3-(2-hydroxyethoxy)-8-(2-methoxypyridin-4-yl)imidazo[1,2-c]pyrimidine-2-carboxamide]
Ki (Adenosine A2A receptor): < 10 nM
EC50 [1]: 10 to 100 nM

CCNC(=O)c1nc2c(-c3ccnc(OC)c3)c(-c3cccc(C#N)c3)nc(N)n2c1C [Example 18, 5-Amino-7-(3-cyanophenyl)-N-ethyl-8-(2-methoxypyridin-4-yl)-3-methylimidazo[1,2-c]pyrimidine-2-carboxamide]
Ki (Adenosine A2A receptor): 10 to 100 nM
EC50 [1]: 10 to 100 nM

CCNC(=O)c1nc2c(-c3ccnc(OC)c3)c(-c3cccc(C#N)c3)nc(N)n2c1-c1ccccn1 [Example 19, 5-Amino-7-(3-cyanophenyl)-N-ethyl-8-(2-methoxypyridin-4-yl)-3-(pyridin-2-yl)imidazo[1,2-c]pyrimidine-2-carboxamide]
Ki (Adenosine A2A receptor): < 10 nM
EC50 [1]: 100 to 1000 nM

CCNC(=O)c1nc2c(-c3cc(C)nc(C)c3)c(-c3ccccc3)nc(N)n2c1Br [Example 20, 5-Amino-3-bromo-8-(2,6-dimethylpyridin-4-yl)-N-ethyl-7-phenylimidazo[1,2-c]pyrimidine-2-carboxamide]
Ki (Adenosine A2A receptor): < 10 nM
EC50 [1]: 100 to 1000 nM

CCNC(=O)c1nc2c(-c3cc(C)nc(C)c3)c(-c3ccccc3)nc(N)n2c1C#N [Example 21, 5-Amino-3-cyano-8-(2,6-dimethylpyridin-4-yl)-N-ethyl-7-phenylimidazo[1,2-c]pyrimidine-2-carboxamide]
Ki (Adenosine A2A receptor): < 10 nM
EC50 [1]: > 1000 nM

CCNC(=O)c1cn2c(NCC)nc(-c3ccccc3)c(-c3cc(C)nc(C)c3)c2n1 [Example 22, 8-(2,6-Dimethylpyridin-4-yl)-N-ethyl-5-(ethylamino)-7-phenylimidazo[1,2-c]pyrimidine-2-carboxamide]
Ki (Adenosine A2A receptor): 10 to 100 nM
EC50 [1]: > 1000 nM

CCNC(=O)c1cn2c(N)nc(-c3ccccc3)c(-c3cc(C)[n+]([O-])c(C)c3)c2n1 [Example 23, 4-(5-Amino-2-(ethylcarbamoyl)-7-phenylimidazo[1,2-c]pyrimidin-8-yl)-2,6-dimethylpyridine 1-oxide]
Ki (Adenosine A2A receptor): < 10 nM

CCn1cc(-c2c(-c3cccc(C#N)c3)nc(N)n3cc(C(=O)N4CC(O)C4)nc23)ccc1=O [Example 24, 3-(5-Amino-8-(1-ethyl-6-oxo-1,6-dihydropyridin-3-yl)-2-(3-hydroxyazetidine-1-carbonyl)imidazo[1,2-c]pyrimidin-7-yl)benzonitrile]
Ki (Adenosine A2A receptor): < 10 nM
EC50 [1]: < 10 nM
